Experimental data taken from patent publication US20120128728A1 (NOVARTIS PHARMA AG, priority 2005, published 2012).

Columns and labels:
in vivo [1] = test: in vivo; parameters: species or system dogs; conditions: both sexes, dog
Excerpt: On Study Days 1 and 14, blood samples for toxicokinetic analysis were obtained from designated animals in the vehicle and high-dose groups before exposure and 2, 4, 8, 12, and 24 hr after exposure, and daily during the 14-day recovery period. Main-study animals were euthanized and necropsied on day 15, recovery animals on day 29, during which the right anterior lobe of each animal was obtained for toxicokinetic analysis.

Aspergillus fumigatus = system: Aspergillus fumigatus
Method: This study had three groups, with 10 rabbits each. Group 1 received the immunosuppressive regimen of intravenous cytarabine and methyl prednisolone and a sham saline inoculation. Group 2 received the immunosuppressive regimen and 5×10^7 conidia of A. fumigatus. […] The immunosuppressive agents were administered by intravenous injection. Antibiotics to prevent bacterial infections were administered by intravenous injection or in the drinking water.
Evaluations performed in this study included mortality and morbidity, daily clinical observations, body weights, clinical pathology (hematology and clinical chemistry), gross necropsy, lung weight, enumeration of visible lung infarctions, fungal colony forming unit (CFU) measurements in BAL, blood, and lung tissue samples, and histopathological evaluation of lung tissue.
There were 3 study groups with 10 rabbits in each group in this experiment. Group 1 received the immunosuppressive regimen of intravenous cytarabine and methyl prednisolone and a sham saline inoculation. Group 2 received the immunosuppressive regimen and 5×10^7 conidia of A. fumigatus.
New Zealand White SPF rabbits that were dual catheterized with vascular access ports (VAPs) and weighing between 2.5 to 4.0 kg at study initiation were used. The rabbits were randomly assigned to treatment groups using a computerized body weight stratification procedure.
In this regard, powder from a blister pack was actuated from the inhaler into a chamber. The small animal ventilator pushed the dispersed powder into an endotracheal tube. The delivery efficiency to the animal was determined by measuring the gravimetric mass of the powder collected on a filter connected to the end of the endotracheal tube. The mass collected on the filter was normalized to the actual blister pack fill weight. The delivery efficiency was used to calculate the estimated dose (mg) for the in vivo experiments.

in vivo [2] = test: in vivo; parameters: species or system rabbits; conditions: rabbit
Method: This Example describes results obtained in the plasma and lung tissue only.
The lot number of the formulation was N020042. The test powder was hand-filled into blister packs and contact sealed at 340° F. for 1.0 second, with an approximate fill weight of approximately 1.5 mg per blister pack.
(§1) The test inhalation was administered in a single inhalation exposure.
The study included two groups each comprised of 48 rabbits. […] Four animals were sacrificed at each of the following time points after dosing: 0.16, 0.3, 1, 1.3, 2, 3, 4, 5, 14, 21, 28, and 45 days. Plasma and lung tissue were collected and analyzed for amphotericin B content using LC/MS-MS. Lower limits of quantitation (LLQ) of the assays were 5 ng/mL in plasma and 20 ng/g in lung tissue.

[3] = system: Aspergillus fumigatus, NIH strain 4215; test: Efficacy of inhaled amphotericin B for prophylaxis in rabbits (Example 13); assay type: in vivo, New Zealand White SPF rabbits; conditions: for survival rate: day 14
Method: The test powder was hand-filled into blister packs and contact sealed at 340° F. for 1.0 second, with an approximate fill weight of approximately 1.5 mg per blister pack.
as §1
Aspergillus fumigatus, NIH strain 4215, was obtained from American Type Culture Collection (ATCC). Inoculum of A. fumigatus was prepared on Sabouraud dextrose flasks. Conidia were harvested with a solution of 0.025% Tween 20 in 0.9% sodium chloride, transferred to a conical tube, washed, and counted. The concentration was adjusted with the same solution to achieve 5×10^7 conidia in 300 μL. Animals in challenged groups were inoculated with the same volume. Inoculation was performed on anesthetized rabbits. Rabbits were intubated using an endotracheal tube and the inoculum was then administered intratracheally with a tuberculin syringe attached to a catheter introduced through the endotracheal tube.
The study included 6 groups each comprised of 10 rabbits. These groups are described in Table 6, below. All groups were immunosuppressed and treated with antibiotics to prevent bacterial infections. The immunosuppression and antibiotic cover regimen is detailed in Table 7, below.

[4] = Dry powder toxicology study in rats with daily or weekly dosing (Example 15); assay type: in vivo; conditions: dosages up to 30.60 mg/kg/dose amphotericin B alone
Method: The information obtained was used to select dose levels and/or dose regimens for subsequent toxicity studies.
The following investigations were performed: clinical observations, body weight, hematology, clinical chemistry, organ weight, histopathology, toxicokinetics, and bioanalytical chemistry.

[5] = Toxicity of two dry powders in rats with daily or weekly dosing (Example 16); assay type: in vivo
Method: The following investigations were performed: clinical observations, body weight, respiratory measurements, hematology, clinical chemistry, histopathology, toxicokinetics, and bioanalytical chemistry.

[6] = Toxicity of two dry powders in beagle dogs, once weekly inhalation (Example 17); assay type: in vivo
Method: The animals were dosed using a close fitting face mask (fitted with a mouth tube) system for 30 min per day according to Table 15, above.

[7] = Fourteen-day inhalation toxicity/toxicokinetic study in rats; assay type: in vivo; conditions: both sexes, rat, lung tissue, inhaled, recovery period, read-out: lung tissue elimination half-life (t1/2) (converted)
Method: Recovery animals were retained for a 14-day postdose recovery period. On study days 1 and 14, blood samples for toxicokinetic analysis were obtained from designated animals in the vehicle only and high-dose (25 mg/kg) groups at predose, 2 hr postdose, and 4 hr postdose. Toxicokinetic blood samples were also obtained during the 14-day recovery period on recovery Days 7 and 14 for males, and on recovery Day 14 only for females due to their lower body weight.
All study animals were subjected to a detailed necropsy on completion of the 14-day treatment period (Day 15) or completion of the 14-day recovery period (Day 29). During necropsy, lung tissue samples for toxicokinetic analysis were obtained from each animal.

fungus = test: Minimum inhibitory concentration (MIC)
Method: The MIC may be expressed as a particular concentration value or as a range of concentrations. […] As used herein, unless otherwise specified, the MIC value shall be taken to be the particular value when a particular MIC value is determined and shall be taken to be a midrange value when a range of MIC values is determined. MIC determinations may be made according to processes known in the art.

[8] = rat, in vivo
Method: (§2) The animals were dosed using a snout only exposure technique for about 60 min on 5 occasions at weekly intervals. Recovery animals were retained for an approximate one month recovery period.
(§3) The following investigations were performed: clinical observations, body weight, food consumption, ophthalmology, hematology, clinical chemistry, urinalysis, histopathology, and toxicokinetics.

[9] = One month inhalation toxicity study in rats
Method: as §2, §3

[10] = Group 3: 1.5 mg/kg inhaled 1 day before 5×10^7 conidia
[11] = Group 3: 1.5 mg/kg inhaled at day −12
[12] = Group 4: 0.15 mg/kg inhaled at day −1
[13] = Group 5: 0.5 mg/kg inhaled at day −1
[14] = Group 6: 1.5 mg/kg inhaled at Day −1

C[C@@H]1[C@H](O)[C@@H](C)/C=C/C=C/C=C/C=C/C=C/C=C/C=C/[C@H](O[C@@H]2O[C@H](C)[C@@H](O)[C@H](N)[C@@H]2O)C[C@@H]2O[C@](O)(C[C@@H](O)C[C@@H](O)[C@H](O)CC[C@@H](O)C[C@@H](O)CC(=O)O[C@H]1C)C[C@H](O)[C@H]2C(=O)O [amphotericin B]
half-life (in vivo [1]): 18.8 days | Kaplan-Meier survival compared with Group 2 (A. fumigatus only) (Aspergillus fumigatus; Group 3): significant (p<0.05) increase | animals observed wheezing, gasping, or having rales (Aspergillus fumigatus; Group 3): five | animals with more than 20 grossly visible lung infarctions (Aspergillus fumigatus; Group 3, gross necropsy): 20% | animals with visible lung infarction (Aspergillus fumigatus; Group 3, gross necropsy): 80% | animals with mycotic hyphae present in lung (Aspergillus fumigatus; Group 3, histopathology): 50% | average survival time (Aspergillus fumigatus; [10]): 13 days | median day of death or sacrifice (Aspergillus fumigatus; [10]): 14 days | animals having 1 or more tissues positive for fungus (Aspergillus fumigatus; Group 3, BAL, blood, lung tissue culture, 9 animals): 44% | effect against A. fumigatus induced mortality (Aspergillus fumigatus; conclusion): prophylactic effect | animals surviving beyond nine days (Aspergillus fumigatus; immunosuppressed, exposed, treated rabbits (FIG. 20)): 100% | Tmax (in vivo [2]; 0.25 mg/kg): 1.33 days | group mean lung Cmax (in vivo [2]; 0.25 mg/kg): 8.0 µg/g | half-life (in vivo [2]; 0.25 mg/kg): 12.2 days | Tmax (in vivo [2]; 1.5 mg/kg): 1 days | group mean lung Cmax (in vivo [2]; 1.5 mg/kg): 46.6 µg/g | half-life (in vivo [2]; 1.5 mg/kg): 10.6 days | median survival time [3, 11]: 10 days | survival rate [3, 11]: 0% | median survival time [3, 12]: 9 days | survival rate [3, 12]: 10% | median survival time [3, 13]: 10.5 days | survival rate [3, 13]: 10% | median survival time [3, 14]: 10 days | survival rate [3, 14]: 10% | Logrank pairwise comparison of Groups 3-6 with untreated Group 2 ([3]; all doses and treatment days): significant (P<0.001) protection | premature demise [4]: 3 animals | clinical signs ([5]; dosages up to 14.80 mg/kg amphotericin B alone): clinical signs indicative of respiratory distress | necropsy findings ([5]; rats, both powders): no notable necropsy findings | changes in body weight, hematology, clinical chemistry, food consumption, respiratory measurement [6]: no significant changes | clinical signs ([6]; all dose groups including vehicle control): salivation | necropsy or histopathology findings attributable to administration ([6]; doses up to 8.2 (3.2) mg/kg weekly): no necropsy or histopathology findings | half-life ([7]; 1.1 mg/kg dose level): 22 days | half-life ([7]; 12.4 mg/kg dose level): 34 days | midrange MIC value (fungus): about 2.25 μg/g | effects on body weight, food consumption, ophthalmology, hematology, clinical chemistry, or organ weights [8]: no adverse effects | mortalities during the study ([9]; 198 M and 198 F rats, one death pretrial): 181 | animals with pneumonia/pleuritis, collapse or alveolar inflammation ([9]; Groups 3 to 6, Main Study): 17/110 | time to maximum plasma concentration after cessation of dosing ([9]; rats, toxicokinetics): ≤ 4 h
